Assay results as given in ChEMBL document CHEMBL3864160, “Discovery of fluorobenzimidazole HCV NS5A inhibitors” (Bioorg Med Chem Lett, 2016).

How the values were obtained:
[1] = Inhibition of Hepatitis C virus genotype 1b Con1 replicon NS5A transfected in human HuH7 cells assessed as decrease in replication of viral replicon in presence of 40% human plasma after 4 days by luciferase reporter gene assay; type: cell-based, Hepatitis C virus (isolate Con1); settings: Huh-7, Plasma, 96 h
[2] = Inhibition of Hepatitis C virus genotype 2a replicon NS5A transfected in human HuH7 cells assessed as decrease in replication of viral replicon after 4 days by luciferase reporter gene assay; type: cell-based, Hepatitis C virus subtype 2a; settings: Huh-7, 96 h
[3] = AUC in Sprague-Dawley rat at 3 mg/kg, po administered via gavage after 0.25 to 24 hrs; type: ADME, organism-based; parameters: time upper 24 hr, dose 3 mg/kg, time lower 0.25 hr, route oral; settings: in vivo
[4] = test system: Hepatitis C virus (isolate H77); assay: Resistance ratio of EC50 for Hepatitis C virus genotype 1a H77 replicon NS5A Y93H mutant to EC50 for Hepatitis C virus genotype 1a H77 replicon NS5A
[5] = test system: Hepatitis C virus (isolate H77); assay: Resistance ratio of EC50 for Hepatitis C virus genotype 1a H77 replicon NS5A M28T mutant to EC50 for Hepatitis C virus genotype 1a H77 replicon NS5A
[6] = Half life in CD1 mouse at 5 mg/kg, po after 0.25 to 24 hrs; type: ADME, organism-based; settings: in vivo
[7] = Cmax in CD1 mouse at 5 mg/kg, po after 0.25 to 24 hrs; type: ADME, organism-based; parameters: dose 5 mg/kg, route oral; settings: in vivo
[8] = Oral bioavailability in Sprague-Dawley rat at 3 mg/kg administered via gavage after 0.25 to 24 hrs; type: ADME, organism-based; settings: in vivo
[9] = Half life in CD1 mouse at 5 mg/kg, iv after 0.1 to 24 hrs; type: ADME, organism-based; settings: in vivo
[10] = AUC in CD1 mouse at 5 mg/kg, po after 0.25 to 24 hrs; type: ADME, organism-based; parameters: time 0.25-24 hr, dose 5 mg/kg, route oral; settings: in vivo
[11] = Plasma clearance in CD1 mouse at 5 mg/kg, iv after 0.1 to 24 hrs; type: ADME, organism-based
[12] = Cmax in Sprague-Dawley rat at 3 mg/kg, po administered via gavage after 0.25 to 24 hrs; type: ADME, organism-based; parameters: dose 3 mg/kg, route oral; settings: in vivo
[13] = test system: Hepatitis C virus (isolate H77); assay: Resistance ratio of EC50 for Hepatitis C virus genotype 1a H77 replicon NS5A Q30R mutant to EC50 for Hepatitis C virus genotype 1a H77 replicon NS5A
[14] = Oral bioavailability in CD1 mouse at 5 mg/kg after 0.25 to 24 hrs; type: ADME, organism-based; settings: in vivo
[15] = test system: Hepatitis C virus (isolate H77); assay: Ratio of EC50 for Hepatitis C virus genotype 1a H77 replicon NS5A in presence of 40% human plasma to EC50 for Hepatitis C virus genotype 1a H77 replicon NS5A in absence of 40% human plasma
[16] = Inhibition of Hepatitis C virus genotype 1b Con1 replicon NS5A transfected in human HuH7 cells assessed as decrease in replication of viral replicon after 4 days by luciferase reporter gene assay; type: cell-based, Hepatitis C virus (isolate Con1); settings: Huh-7, 96 h
[17] = Half life in Sprague-Dawley rat at 3 mg/kg, iv administered as bolus dose after 0.1 to 24 hrs; type: ADME, organism-based; settings: in vivo
[18] = Inhibition of Hepatitis C virus genotype 4a replicon NS5A transfected in human HuH7 cells assessed as decrease in replication of viral replicon after 4 days by luciferase reporter gene assay; type: cell-based, Hepatitis C virus subtype 4a; settings: Huh-7, 96 h
[19] = Inhibition of Hepatitis C virus genotype 2b replicon NS5A transfected in human HuH7 cells assessed as decrease in replication of viral replicon after 4 days by luciferase reporter gene assay; type: cell-based, Hepatitis C virus subtype 2b; settings: Huh-7, 96 h
[20] = Inhibition of Hepatitis C virus genotype 3a replicon NS5A transfected in human HuH7 cells assessed as decrease in replication of viral replicon after 4 days by luciferase reporter gene assay; type: cell-based, Hepatitis C virus subtype 3a; settings: Huh-7, 96 h
[21] = Inhibition of Hepatitis C virus genotype 1a H77 replicon NS5A transfected in human HuH7 cells assessed as decrease in replication of viral replicon in presence of 40% human plasma after 4 days by luciferase reporter gene assay; type: cell-based, Hepatitis C virus (isolate H77); settings: Huh-7, Plasma, 96 h
[22] = test system: Hepatitis C virus (isolate H77); assay: Resistance ratio of EC50 for Hepatitis C virus genotype 1a H77 replicon NS5A Y93C mutant to EC50 for Hepatitis C virus genotype 1a H77 replicon NS5A
[23] = Plasma clearance in Sprague-Dawley rat at 3 mg/kg, iv administered as bolus dose after 0.1 to 24 hrs; type: ADME, organism-based
[24] = Inhibition of Hepatitis C virus genotype 1a H77 replicon NS5A Q30R mutant transfected in human HuH7 cells assessed as decrease in replication of viral replicon after 4 days by luciferase reporter gene assay; type: cell-based, Hepatitis C virus (isolate H77); settings: Huh-7, 96 h
[25] = Inhibition of Hepatitis C virus genotype 1a H77 replicon NS5A M28T mutant transfected in human HuH7 cells assessed as decrease in replication of viral replicon after 4 days by luciferase reporter gene assay; type: cell-based, Hepatitis C virus (isolate H77); settings: Huh-7, 96 h
[26] = Inhibition of Hepatitis C virus genotype 1a H77 replicon NS5A transfected in human HuH7 cells assessed as decrease in replication of viral replicon after 4 days by luciferase reporter gene assay; type: cell-based, Hepatitis C virus (isolate H77); settings: Huh-7, 96 h

## COC(=O)N[C@H](C(=O)N1CCC[C@H]1c1nc2ccc([C@H]3CC[C@H](c4ccc5nc([C@@H]6CCCN6C(=O)[C@@H](NC(=O)OC)C(C)C)[nH]c5c4)N3c3ccc(C(C)(C)C)cc3)cc2[nH]1)C(C)C
[1]
  EC50: 0.272 nM
[2]
  EC50: 0.155 nM
[3]
  AUC: 560 ng·h/mL
[4]
  Ratio EC50: 239
[5]
  Ratio EC50: 4
[6]
  half-life: 2.6 h
[7]
  Cmax: 270 ng/mL
[8]
  bioavailability: 20%
[9]
  half-life: 2 h
[10]
  AUC: 1390 ng·h/mL
[11]
  clearance: 6.33 mL/min/kg
[12]
  Cmax: 60 ng/mL
[13]
  Ratio EC50: 14
[14]
  bioavailability: 11%
[15]
  Ratio EC50: 10 to 20
[16]
  EC50: 0.014 nM
[17]
  half-life: 4.1 h
[18]
  EC50: 0.006 nM
[19]
  EC50: 0.01 nM
[20]
  EC50: 0.014 nM
[21]
  EC50: 0.155 nM
[22]
  Ratio EC50: 8
[23]
  clearance: 17.7 mL/min/kg
[24]
  EC50: 0.027 nM
[25]
  EC50: 0.008 nM
[26]
  EC50: 0.002 to 0.011 nM
